The pIC50 is the IC50 on a negative log10 scale, so that one unit is a factor of ten. As usually defined, the IC50 is the point on the concentration scale where inhibition reaches its midpoint. Low readings indicate inhibition by little substance, high ones a need for much substance. Usually inhibition stands for how much of the control response was suppressed.

pIC50: −log10 of the molar value.

For test [1], the system named is KB. Put plainly: Antiproliferative activity against human KB cells assessed as inhibition of cell growth after 72 hrs by methylene blue dye assay. The class given is functional, cell-based.
A short description of test [2]: Antiproliferative activity against human H460 cells assessed as inhibition of cell growth after 72 hrs by methylene blue dye assay. The class given is functional, cell-based. The conditions noted are these: NCI-H460, 72 h.
Test [3] deals with HT-29. Put plainly: Antiproliferative activity against human HT-29 cells assessed as inhibition of cell growth after 72 hrs by methylene blue dye assay. The settings on record: HT-29, 72 h. Format: functional, cell-based.
Test [4] is described as follows: Antiproliferative activity against human MKN45 cells assessed as inhibition of cell growth after 72 hrs by methylene blue dye assay. The class given is functional, cell-based. The conditions noted are these: MKN-45, 72 h.
Test [5] in a line: Antiproliferative activity against human KB-VIN10 cells overexpressing P-gp 170/MDR assessed as inhibition of cell growth after 72 hrs by methylene blue dye assay. The settings on record: KB-VIN10, 72 h. Format: functional, cell-based.
In test [6] the target is Tubulin (Bos taurus, UniProt Q6B856+Q862L2+Q862F3). Put plainly: Inhibition of bovine brain microtubule-associated protein rich tubulin polymerization by turbidimetric assay.
The target in test [7] is T1, Tubulin (UniProt P68371+Q9H4B7+P0DPH7+P68366+Q13509+Q71U36+P04350+Q3ZCM7+P07437+P68363+Q9BQE3+Q6PEY2+Q13885+Q9BVA1+Q9BUF5). Put plainly: Displacement of [3H]colchicine from long-chain biotin-labeled tubulin (unknown origin) at 1 uM after 2 hrs by competition binding scintillation proximity assay. The class given is protein-complex assay. The settings on record: Homo sapiens. (Displacement assays read how much labelled ligand stays bound in the presence of the test substance.)

Test [8] deals with T1, Tubulin. Put plainly: Displacement of [3H]colchicine from long-chain biotin-labeled tubulin (unknown origin) at 5 uM after 2 hrs by competition binding scintillation proximity assay. The class given is protein-complex assay. The conditions noted are these: Homo sapiens.

Consider `COc1ccc(S(=O)(=O)N2CCc3cccc(-c4ccc(F)cc4)c32)cc1`, for which the pIC50 in test [1] is 7.07; in test [2], 7.02; in test [3], 7.07; in test [4], 7.10; in test [5], 7.02. In test [6], this molecule gave an IC50 of 2.5 µM. The inhibition in test [7] amounted to 59%; in test [8], 73%.
`COc1ccc(S(=O)(=O)N2CCc3cccc(-c4ccc([N+](=O)[O-])cc4)c32)cc1`: the negative logarithm of the IC50 (pIC50) in test [1] was 7.28; in test [2], 7.27; in test [3], 7.29; in test [4], 7.47; in test [5] it was 7.29. In addition, the half-inhibitory concentration (IC50) in test [6] was 1.7 µM. Moreover, the inhibition in test [7] came to 56%; in test [8], 74%.
As for `COc1ccc(S(=O)(=O)N2CCc3cccc(-c4ccc(N(C)C)cc4)c32)cc1`, the pIC50 in test [1] is 6.27; in test [2], 6.25; in test [3], 6.33; in test [4], 6.62; in test [5], 6.26.
`COc1cc2c(c(OC)c1OC)-c1ccc(OC)c(=O)cc1[C@@H](NC(C)=O)CC2` [COLCHICINE]: the negative-log IC50 (pIC50) in test [5] is 6.92.
Consider `COc1ccc(S(=O)(=O)N2CCc3cccc(-c4cccnc4)c32)cc1`, for which the negative logarithm of the IC50 (pIC50) in test [1] was 7.02; in test [2], 7.05; in test [3], 7.12; in test [4] it was 7.16; in test [5] it was 7.07.
As for `COc1ccc(S(=O)(=O)N2CCc3cccc(-c4ccco4)c32)cc1`, the pIC50 in test [1] was 7.09; in test [2], 7.02; in test [3], 7.20; in test [4], 7.38; in test [5] it was 7.10. In addition, the 50% inhibitory concentration (IC50) in test [6] is 2.6 µM. Also, the inhibition in test [7] was 43%; in test [8] it was 68%.
In the case of `COc1ccc(S(=O)(=O)N2CCc3cccc(-c4cccc(F)c4)c32)cc1`, the negative logarithm of the IC50 (pIC50) in test [1] was 7.01; in test [2], 6.78; in test [3], 6.92; in test [4], 7.07; in test [5] it was 7.03.
In the case of `COc1ccc(S(=O)(=O)N2CCc3cccc(-c4ccc(C#N)cc4)c32)cc1`, the pIC50 in test [1] is 7.51; in test [2], 7.53; in test [3], 7.62; in test [4], 7.76; in test [5] it was 7.53. For the same molecule, the IC50 in test [6] was 1.5 µM. For the same molecule, the figures for the inhibition in test [7] and in test [8] were 81% and 92%, respectively.
With `COc1ccc(S(=O)(=O)N2CCc3cccc(-c4ccc(F)nc4)c32)cc1`, the pIC50 is 6.84 in test [1]; 6.87 in test [2]; 6.96 in test [3]; 6.84 in test [4]; 6.82 in test [5].
Take `COc1ccc(-c2cccc3c2N(S(=O)(=O)c2ccc(OC)cc2)CC3)cc1`: the pIC50 in test [1] is 6.47; in test [2], 6.52; in test [3], 6.56; in test [4], 6.68; in test [5], 6.45.
The matching figures for `COc1ccc(S(=O)(=O)N2CCc3cccc(-c4ccc(O)cc4)c32)cc1`: 6.89, 6.95, 6.88, 7.08 and 6.91.
The matching figures for `COc1ccc(S(=O)(=O)N2CCc3cccc(-c4ccccc4)c32)cc1`: 6.92, 6.67, 7.02, 6.93 and 6.97.
With `COc1ccc(S(=O)(=O)N2CCc3cccc(-c4ccncc4)c32)cc1`, the pIC50 in test [1] was 7.02; in test [2] it was 7.00; in test [3], 7.06; in test [4], 7.16; in test [5] it was 6.97. The molecule also returned an IC50 in test [6] of 2.2 µM. Also, the inhibition is 54% in test [7] and 72% in test [8].
With `COc1ccc(S(=O)(=O)N2CCc3cccc(-c4cc(OC)c(OC)c(OC)c4)c32)cc1`, the negative logarithm of the IC50 (pIC50) in test [1] is 5.43; in test [2] it was 5.20; in test [3], 5.29; in test [4], 5.97; in test [5] it was 5.33.
Consider `COc1ccc(S(=O)(=O)N2CCc3cccc(-c4ccc(F)c(F)c4)c32)cc1`, for which the negative-log IC50 (pIC50) is 7.35 in test [1]; 7.34 in test [2]; 7.24 in test [3]; 7.26 in test [4]; 7.34 in test [5]. In addition, the concentration for half-maximal inhibition (IC50) in test [6] turned out to be 2.3 µM. In addition, the inhibition in test [7] amounted to 52%; in test [8] it was 72%.
Regarding `COc1ccc(S(=O)(=O)N2CCc3cccc(-c4cccs4)c32)cc1`, the negative-log IC50 (pIC50) in test [1] was 6.67; in test [2], 6.64; in test [3], 6.70; in test [4], 6.78; in test [5] it was 6.60.
The like results for `COc1ccc(S(=O)(=O)N2CCc3cccc(-c4c(F)c(F)c(F)c(F)c4F)c32)cc1` were, in that order, 5.39, 5.32, 5.41, 5.75 and 5.33.
The like results for `COc1ccc(S(=O)(=O)N2CCc3cccc(-c4ccc(N)cc4)c32)cc1` were, in that order, 6.60, 6.54, 6.52, 6.79 and 6.58.

These data come from ChEMBL document CHEMBL3217693, “Synthesis and biological evaluation of 7-arylindoline-1-benzenesulfonamides as a novel class of potent anticancer agents” (Medchemcomm, 2010).
